The values that follow are results of earlier work, collected in patent publication US20150119345A1, “BILE ACID RECYCLING INHIBITORS FOR TREATMENT OF GASTROINTESTINAL INFECTIONS” (priority 2013, published 2015).

The subject of one series is mice. Particulars: 0.1 mg/kg rat or human GLP-2 to mice for 7-10 days.

“GLP-2: 33 amino acid peptide, co-secreted along with GLP-1 from intestinal endocrine cells in the small and large intestine”: the t½ in vivo result is given as “short”. Also, the “small bowel weight and villus height” value with mice is “increase in small bowel weight and villus height”.
